Several values for one entry are separate records, joined by “and”; a condition that tells them apart may be missing. Equal entries are not always repeated.
How the values were obtained:
Porcine T-lymphoblasts = assay: T-lymphoblast labeling and in vitro retention of [18F]FDG; type: cell-based; conditions: mono-exponential fit, R^2=0.99; 6 time points over 120 minutes
Method: (§1) [^18F]FDG (t1/2=109.8 min) was prepared according to standard procedures (TRACERIab FxFDG, GE Medical Systems, USA). Cells were incubated with [^18F]FDG in 7-10 mL PBS for 60 minutes at 37° C. before being washed to remove excess radioactivity.
The retention (the rate of tracer washout through GLUTs after dephosphorylation of [^18F]FDG-6P) was measured in triplicates at 6 different time points over 120 minutes and the retention half-life was estimated by fitting the data to a mono-exponential curve.

T-lymphoblasts = assay: PET-examination of lung uptake and distribution of transfused [18F]FDG-labeled T-lymphoblasts; type: in vivo, pig; conditions: for pulmonary uptake of T-lymphoblasts compared to intravenous administration alone (in words): pre-incubation and intravenous co-administration with dextran sulfate
Method: In this study we present a method to monitor transfusion of T-lymphoblasts in vivo in a porcine model by PET-imaging. Porcine T-lymphoblasts were labeled with [^18F]FDG prior to administration, and the kinetics and bio-distribution of the cells was monitored for up to 2 hours. [^18F]FDG is a functional analogue to glucose, but cannot be metabolized further than the initial phosphorylation by hexokinase and is trapped in the cell cytoplasm. The same concept has been applied by our group to image transplantation of islets of Langerhans in a porcine model and in the clinical setting.
In the present work, three modes of administration were compared; intravenous administration with or without co-administration of the complement and coagulatory inhibitor low molecular weight dextran sulphate (LMW-DS), and intraarterial administration.
Spleens from three months old pigs were surgically resected and stored in PBS for immediate preparation. Spleens were cut into smaller fragments and mashed first against a 1 mm steel mesh and a second time with a syringe rubber plunger against a fine nylon mesh. The tissue was resuspended in PBS and the T-lymphoblasts were isolated using Ficoll-Paque (GE-Healthcare Uppsala, Sweden) density gradient centrifugation. All T-lymphoblasts were activated with PHA (1 μg/mL) (Invitrogen, Carlsbad, Calif., USA) to simulate the clinical setting of adoptively transferred tumor infiltrating lymphocytes.
T-lymphoblasts were suspended in 10-15 mL of PBS and administered over 10 minutes either intravenously into the internal jugular vein (n=5) or intraarterially into the ascending aorta (n=1). Two of the pigs given intravenous administration were pretreated with LMW-DS (4.5 mg/kg) (Apoteket AB, Umeå, Sweden). The T-lymphoblasts were in these two cases co-administered intravenously together with LMW-DS (9 mg/kg, followed by continuous infusion of 7.2 mg/kg/h).
as §1
Six pigs were examined by PET after administration of [^18F]FDG-labeled T-lymphoblasts. A GE Discovery ST PET/CT scanner (n=3) or a Hamamatsu SHR-7700 scanner (n=3) was used. Dynamic sequences were acquired over the lungs and liver for up to 120 minutes. The kinetic data obtained was expressed as absolute number of cells or the percentage of administered cells. Results are given as averages±SEM.
The concentration and total amount of cells trapped in lung tissue could be quantified. Table 1 presents the amount of T-lymphoblasts in the lungs at 30 minutes. Between 80 and up to 635 million cells (16 to 79% of the grafts) was trapped in lung tissue after administration. To quantify the amount of cells trapped in hotspots we defined two levels of density: hotspots with a cellular density over either 250.000 cells/cc (moderate density) or over 500.000 cells/cc (high density).

[1] = human patients, following an administration of dextran sulfate; cited from earlier work
[2] = range over the two LMW-DS pigs, lungs at 30 minutes

Compound	[18F]FDG retention half-life (Porcine T-lymphoblasts)	% of cells in lungs (T-lymphoblasts; at 30 minutes, single pig)	lung uptake (% of the administered T-lymphoblasts), average (T-lymphoblasts; at completed transfusion, intravenous co-administration of LMW-DS, pretreated pigs, n=2)	pulmonary uptake of T-lymphoblasts compared to intravenous administration alone (in words) (T-lymphoblasts)	pulmonary uptake of T-lymphoblasts compared to intravenous administration alone (in words) (T-lymphoblasts; listed as dextran sulfate)	amount of cells in high density hotspots (T-lymphoblasts; [2])	cells in high density hotspots as % of lung uptake (T-lymphoblasts; [2])	APTT safely achieved [1]
OC[C@H]1OC(O)[C@H]([18F])[C@@H](O)[C@@H]1O (stereo partly drawn) [[^18F]FDG, ^18F-2-fluoro-2-deoxy-D-glucose]	5.32 h							
low molecular weight dextran sulfate [LMW-DS]		16.3% and 31.8%	36.6%	lower	decreased	0-111 million cells	0-39%	about 250 s

Source: US9446066B2, “Methods for reducing pulmonary uptake of intravenously injected cells” (priority 2010, dated 2016)
